Results published in patent US4526967A, “Benzoquinolizines and use as α2 -adrenoceptor antagonistics” (John Wyeth & Brother Limited, priority 1983, dated 1985).

Legend:
α2 -adrenoceptor = target: T1, α2 -adrenoceptor (Rattus norvegicus, UniProt P22909); experiment: α2-adrenoceptor antagonistic activity on the rat field stimulated vas deferens preparation (antagonism of clonidine); details: for α2 /α1 selectivity: antilog of (α2 pA2 -α1 pA2); for Kb: rat field stimulated vas deferens, agonist clonidine, Schild plot (Arunlakshana & Schild), read-out: pA2 for α2 -adrenoceptor antagonistic activity (converted)
T1 construct: from tissue; host or cells: rat vas deferens (desheathed, field stimulated)
T1 sequence (P22909 1-465): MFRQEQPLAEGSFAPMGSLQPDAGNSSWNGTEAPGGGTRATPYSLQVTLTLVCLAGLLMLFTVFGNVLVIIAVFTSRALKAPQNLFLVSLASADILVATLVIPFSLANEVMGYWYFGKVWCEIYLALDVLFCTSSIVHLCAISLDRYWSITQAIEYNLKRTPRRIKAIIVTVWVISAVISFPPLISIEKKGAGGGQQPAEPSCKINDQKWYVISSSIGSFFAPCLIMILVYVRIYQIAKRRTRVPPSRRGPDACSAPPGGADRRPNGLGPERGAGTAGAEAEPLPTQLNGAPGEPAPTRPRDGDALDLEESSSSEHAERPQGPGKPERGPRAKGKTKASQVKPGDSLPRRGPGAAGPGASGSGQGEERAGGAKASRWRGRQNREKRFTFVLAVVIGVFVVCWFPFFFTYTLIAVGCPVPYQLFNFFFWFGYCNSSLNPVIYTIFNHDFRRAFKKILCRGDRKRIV
Method: The compounds of the invention are tested for α2 -adrenoceptor antagonistic activity on the rat field stimulated vas deferens preparation using a modification of the metod of Drew, Eur. J. Pharmac., 1977, 42, 123-130. The procedure is described below.
Desheathed vasa deferentia from sexually mature rats were suspended in a 6 ml organ bath in Krebs solution at 37° and bubbled with 5% CO2 in oxygen. Platinum ring electrodes were positioned above and below the tissue for field stimulation, the stimulus parameters being 0.1 Hz 1 ms pulse width at supramaximal voltage. Twitch responses were recorded isotonically with a 0.5 g loading. Clonidine hydrochloride was used as the α-adrenoceptor agonist and cumulative concentration-response curves were constructed for the inhibition of twitch obtained with clonidine in the range 0.125 to 4 ng ml^-1. After washing out clonidine, the twitch response quickly recovered and an antagonist was then introduced into the Krebs reservoir. Clonidine concentration-response curves were repeated 90 min after introduction of the antagonist. The concentration of clonidine producing 50% inhibition of twitch before and after introduction of antagonist were obtained and the dose-ratio for clonidine was calculated. Various concentrations of the antagonists were used.
Chemother., 1959, 14, 48-58 and the values of pA2 and slope were calculated.

α1 -adrenoceptors = target: T2, α1 -adrenoceptors (Rattus norvegicus, UniProt P43140); experiment: α1 antagonistic activity on the isolated anococcygeus muscle of the rat (antagonism of phenylephrine or methoxamine); details: agonist phenylephrine or methoxamine, Arunlakshana & Schild, read-out: pA2 values for α1 antagonistic activity (converted)
T2 construct: isolated anococcygeus muscle of the rat; from tissue; host or cells: rat anococcygeus muscle (male, 250-360 g)
T2 sequence (P43140 1-466): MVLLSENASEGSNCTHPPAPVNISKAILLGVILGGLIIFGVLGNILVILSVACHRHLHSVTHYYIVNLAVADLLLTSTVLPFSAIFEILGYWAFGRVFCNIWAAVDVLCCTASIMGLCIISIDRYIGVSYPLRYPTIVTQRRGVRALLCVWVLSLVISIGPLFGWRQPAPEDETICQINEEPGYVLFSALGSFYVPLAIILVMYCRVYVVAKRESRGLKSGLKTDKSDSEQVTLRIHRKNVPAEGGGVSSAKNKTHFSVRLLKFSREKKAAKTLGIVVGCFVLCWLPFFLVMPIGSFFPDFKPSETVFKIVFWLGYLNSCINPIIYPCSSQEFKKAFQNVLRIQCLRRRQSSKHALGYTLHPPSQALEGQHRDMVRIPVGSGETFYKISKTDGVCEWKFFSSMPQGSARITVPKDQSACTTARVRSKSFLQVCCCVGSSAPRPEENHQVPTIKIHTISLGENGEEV
Text: The compounds of the invention generally antagonise the α2 -adrenoceptors to a much greater extent than the α1 -adrenoceptors. The α1 antagonistic activity can be evaluated by a number of different methods. One method involves assessing the activity on the isolated anococcygeus muscle of the rat. The method is based on that of Gillespie, Br.J.Pharmac., 1972, 45, 404-416. In the procedure male rats (250-360 g) are killed by a blow on the head and bled. The two anococcygeus muscles are removed from their position in the midline of the pelvic cavity, where they arise from the upper coccygeal vertebrae. The muscles are suspended in 5 ml organ baths in Krebs solution containing […] ascorbic acid, to prevent drug oxidation. The tissues are gassed with a 95% oxygen, 5% CO2 mixture and maintained at 37°. Longitudinal muscle contractions are recorded using isotonic transducers. Cumulative dose response curves are then obtained to phenylephrine or in some cases methoxamine, both agents being […] alpha adrenoceptor agonists. The concentration range of phenylephrine or methoxamine used is 0.02 to 0.8 μg.ml^-1. The agonist is then washed from the bath and the test drug added to the bathing medium at a concentration of 10^-6 M. After 30 min equilibration with the test drug a further agonist dose response curve is obtained. The washing, equilibration and agonists dosing procedures are then repeated using 10^-5 M and 10^-4 M solutions of the test drug. Estimates of the pA2 value for the test drug as an antagonist of phenylephrine or methoxamine were made from the agonist dose-ratios using the method of Arunlakshana & Schild, Br. J.Pharmac.Chemother., 1959, 14, 48-58.

Compound | α2 /α1 selectivity (α2 -adrenoceptor) | Kb (α2 -adrenoceptor) [nM] | Kb (α1 -adrenoceptors) [nM]
CCCS(=O)(=O)N(CCNS(C)(=O)=O)[C@H]1CCN2CCc3ccccc3[C@H]2C1 (relative stereo) [Example 12, N-((2β,11bα)-1,3,4,6,7,11b-Hexahydro-2H-benzo[a]quinolizine-2-yl)-N-(2-methanesulphonamidoethyl)-n-propanesulphonamide] | 309 | 5.13 | 1580
CS(=O)(=O)NCCN([C@H]1CCN2CCc3ccccc3[C@H]2C1)S(=O)(=O)c1ccccc1 (relative stereo) [Example 13, N-((2β,11bα)-1,3,4,6,7,11b-Hexahydro-2H-benzo[a]quinolizin-2-yl)-N-(2-methanesulphonamidoethyl)benzenesulphonamide] | 83 | 7.59 | 631
CS(=O)(=O)NCCN([C@H]1CCN2CCc3ccccc3[C@H]2C1)S(C)(=O)=O (relative stereo) [Example 2, N-[(2β,11bα)-1,3,4,6,7,11b-Hexahydro-2H-benzo[a]quinolizin-2-yl]-N-(2-methanesulphonamidoethyl)methanesulphonamide] | 407 | 11.7 | 4790
